# Data reported in patent US5830910A (priority 1995, dated 1998).
# Experiments:
# [1] = test system: cultured hippocampal neurons; assay: neurotoxicity of combined exposure to Aβ and glutamate; assay type: cell-based, rat; details: 50 μM Aβ plus 20 μM glutamate, 48 h; compared with either insult alone
# Text: Dissociated embryonic rat hippocampal cell cultures were established and maintained. All procedures conformed with the NIH Guide for the Care and Use of Laboratory Animals and were approved by the University of Kentucky Animal Care and Use Committee. Cultures were maintained on a polyethyleneimine-coated substrate in plastic 35-mm dishes or 96 wall plates (for cell survival studies) or glass-bottom 35-mm dishes (for [Ca^2+ ]i imaging studies). The cell density was ^~ 70-100 cells/mm^2. Cells were maintained in Eagle's minimum essential medium supplemented 10% with fetal bovine serum and containing 20 mM sodium pyruvate. […]
# (§1) Neuronal survival was quantified by counting viable neurons in the same microscope fields (10x objective) immediately before experimental treatment and at time points after treatment. In addition, cells were grown in 96-well plates and Alamar blue fluorescence (Alamar Laboratories)was quantified by using a fluorescence plate reader. […] Viability of the remaining neurons was assessed by morphological criteria. […] Survival values were expressed as percentages of the initial number of neurons present before experimental treatment. […]
# FIG. 13. […] Neuronal survival was assessed 48 h after treatment. […]
# [2] = test system: cultured hippocampal neurons; assay: cells; assay type: cell-based, rat
# Text: (§2) Dissociated embryonic rat hippocampal cell cultures were established and maintained. All procedures conformed with the NIH Guide for the Care and Use of Laboratory Animals and were approved by the University of Kentucky Animal Care and Use Committee. Cultures were maintained on a polyethyleneimine-coated substrate in plastic 35-mm dishes or 96 wall plates (for cell survival studies) or glass-bottom 35-mm dishes (for [Ca^2+ ]i imaging studies). The cell density was ^~ 70-100 cells/mm^2. Cells were maintained in Eagle's minimum essential medium supplemented 10% with fetal bovine serum and containing 20 mM sodium pyruvate. […] Aβ25-35 (Bachem, lot ZJ744) and Aβ1-40 (Bachem, lot ZK600) were stored in the lyophilized form, and stocks were prepared immediately before use by dissolving the peptide at a concentration of 1 mM in sterile distilled water. […] Glutamate and colchicine (Sigma) were prepared as 200-500x stocks in saline. Cytochalasins D and E (Sigma) and calcium ionophore 4-bromo-A23187 (Calbiochem) were prepared as 500x stocks in dimethyl sulfoxide. Vitamin E (α-tocopherol; Sigma) was prepared as a 500x stock in ethanol. Nordihydroguaiaretic acid and FeSo4 were prepared as 500x stocks in sterile water.
# (§3) Neuronal survival was quantified by counting viable neurons in the same microscope fields (10x objective) immediately before experimental treatment and at time points after treatment. In addition, cells were grown in 96-well plates and Alamar blue fluorescence (Alamar Laboratories)was quantified by using a fluorescence plate reader. Alamar Blue is a non-fluorescent substrate that, after reduction by cell metabolites, becomes fluorescent. Usually neurons that died in the time intervals (20-48 h) between examination points were absent. Viability of the remaining neurons was assessed by morphological criteria. Neutrons with intact neurites of uniform diameter and a soma with a smooth, round appearance were considered viable, whereas neurons with fragmented neurites and a vacuolated or swollen soma were considered nonviable. Survival values were expressed as percentages of the initial number of neurons present before experimental treatment. Statistical comparisons were made using ANOVA and Scheffe post-hoc tests for pairwise comparisons.
# Values represent the means and SEM of 4 separate cultures (cell counts) or 4 culture wells (Alamar blue assay). ^a p<0.05 compared to control value. ^b p<0.001 compound to control value. ^c p<0.01 compared to value for glutamate-treated cultures. ^d p<0.005 compared to value for glutamate-treated cultures. ^e p<0.001 compared to value for Aβ-treated cultures. ^f p<0.001 compared to value for cultures treated with 20 μM glutamate. ^g p<0.001 compared to cultures treated with 50 μM Aβ+20 μM glutamate. n.d. not determined.
# [3] = test system: neuronal [Ca^2+]i in cultured hippocampal neurons; assay: measurement of [Ca^2+]i, fura-2 imaging; assay type: cell-based, rat; details: 50 μM Aβ
# Text: as §2
# Fluorescence ratio imaging of the Ca^2+ indicator dye fura-2 was used to quantify [Ca^2+ ]i in neuronal somata. Cells were incubated for 30-40 min in the presence of 2 μM acetoxymethyl ester form of the [Ca^2+ ]i indicator dye fura-2 and were then washed twice (2 ml/wash) with fresh medium and allowed to incubate at least 40 min before imaging. Immediately before imaging, the normal culture medium was replaced with Hanks' balanced saline solution (GIBCO) containing 10 mM HEPES buffer and 10 mM of glucose. Cells were imaged using a Zeiss Attofluor system with a oil objective or Quantex system with a 40x oil objective. The ratio of the fluorescence emission using two different excitation wavelengths (334 and 380 nm) was used to determine [Ca^2+ ]i. The system was calibrated using solutions containing either no Ca^2+ or a saturating level of Ca^2+ (1 mM) according to the following formula: [Ca^2+ ]i =KD [(R-Rmin) / (Rmax -R)] (F0 /FS). Values represent the average [Ca^2+ ]i in the neuronal cell body. Experimental treatments were added to the bathing medium by dilution from 100-500x stocks.
# (A) Cultures were pretreated for 1 hr with 100 nM cytochalasin D and then [Ca^2+ ]i in neurons was monitored prior to and following exposure to 50 μM glutamate. The records represent the mean [Ca^2+ ]i in 8-12 neurons. Similar results were obtained in 4 separate experiments.
# (B) Aβ-induced potentiation of [Ca^2+ ]i response to glutamate is abrogated by cytochalasin D. Cultures were left untreated (Control) or were exposed to 20 μM Aβ25-35 for 6 hr or cytochalasin D plus Aβ25-35 for 6 hr. The [Ca^2+ ]i was then monitored prior to following exposure to 50 μM glutamate. Values represent the means of 8-14 neurons. Similar results were obtained in 3 separate experiments.
# (C) Cultures were pretreated for 3 hr with 50 μM Aβ alone or in combination with 100 nM cytochalasin D. The [Ca^2+ ]i in neurons was then monitored prior to and following exposure to 50 mM KCl. Values represent the mean of 14-23 neurons. Similar results were obtained in a separate experiment.
# (D) Cultures were pretreated for 1 h with 100 nM cytochalasin D. The [Ca^2+ ]i in neurons was measured immediately prior to, and at 5 min following, exposure to the indicated concentrations of glutamate. Values represent the means and SEM of determinations made in 17-26 neurons. *P<0.05 (10 μM glutamate), P<0.02 (50 μM glutamate), P<0.01 (100 μAM glutamate) compared to corresponding control values.
# FIG. 9. Cultures were pretreated for 3 h with vehicle (control) or 10 μM jasplakinolide. The [Ca^2+ ]i was monitored prior to and following exposure to 50 μM glutamate. Values represent the mean of determinations made in 10-12 neurons. Similar results were obtained in two additional experiments.
# FIG. 10. […]
# [4] = test system: cultured hippocampal neurons; assay type: cell-based, rat; details: for neurotoxicity, preliminary characterization: 48-h period, added in soluble form
# Text: as §2, §3
# FIG. 12. (A) Cultures were pretreated for 1 h with vehicle 0.2% dimethyl sulfoxide (Control) or 100 nM cytochalasin D (CyD) and were exposed to the indicated concentrations of Aβ25-35 for 48 h. Data are mean and SEM values of determinations made in four separate cultures.
# (B) Cultures were pretreated for 1 h with the indicated concentrations of cytochalasin D and then exposed to 50 μM Aβ25-35; parallel cultures were exposed to cytochalasin D alone (Control) . Data are mean and SEM values of determinations made in four separate cultures.
# FIG. 14. Cultures were exposed to 100 nM colchicine; 50 μM Aβ; 100 nM colchicine plus 50 μM Aβ; 100 nM cytochalasin E (CyE) plus Aβ (colchicine and cytochalasin E were added 1 h before Aβ); neuronal survival was assessed 48 h later. Data are mean and SEM values of determinations made in four separate cultures. *p<0.01, compared with values for control or colchicine alone. **p<0.01, compared with value for cultures exposed to Aβ alone.
# [5] = aggregation of peptides in culture medium; assay type: physicochemical
# Text: as §2
# [6] = test system: neuronal [Ca^2+]i in cultured hippocampal neurons; assay: measurement of [Ca^2+]i, fura-2 imaging; assay type: cell-based, rat; details: 50 μM glutamate
# [7] = test system: cultured hippocampal neurons; assay: iron (FeSO4) neurotoxicity; assay type: cell-based, rat; details: 50 μg/ml vitamin E or 2 μM NDGA, 1 h preincubation
# Text: as §2, §3
# FIG. 8. Cultures were preincubated 1 h in the presence of 0.5% dimethylsulfoxide (control), 100 nM cytochalasin D, 50 μg/ml vitamin E (VitE), or 2 μM nordihydroguairetic acid (NDGA). Cultures were then exposed for 6 h to the indicated concentrations of FeSO4 and neuronal survival was quantified. Values represent the means and SEM of determinations made in four separate cultures. *P<0.001 compared to value for cultures exposed to 100 μM FeSO4 alone.
# [8] = test system: cultured hippocampal neurons; assay: hydrogen peroxide neurotoxicity; assay type: cell-based, rat
# Text: as §2
# as §3, with “Usually neurons that died in the time intervals (20-48 h) between examination points were absent.” left out
# FIG. 15. […] Cultures were pretreated for 1 h with vehicle (Control), 100 nM cytochalasin D (CyD), or 50 μg/ml vitamin E (vE) and then exposed for 20 h to the indicated concentrations of hydrogen peroxide. Data are mean and SEM values of determinations made in four separate cultures.
# [9] = test system: cultured hippocampal neurons; assay: calcium ionophore A23187 neurotoxicity; assay type: cell-based, rat
# Text: as §2
# as §1, with “reader. Alamar Blue is a non-fluorescent substrate that, after reduction by cell metabolites, becomes fluorescent.” for “reader.”
# FIG. 7. Cultures were pretreated for 1 h with 0.2% dimethylsulfoxide (control) or 100 nM cytochalasin D. Calcium ionophore A23187 was then added at the indicated concentrations and neuronal survival was assessed 8 h later. […]
molecule,measurement,setting,value
"Aβ25-35: Aβ25-35 (Bachem, lot ZJ744), amyloid β-peptide fragment (GSNKGAIIGLM; Amyloid-beta protein 42; UniProt P05067 696-706, looked up, fragment) [reference compound]",neuronal death on combined exposure to Aβ and glutamate,[1],significantly more neuronal death
same,"Neuron Survival (% of control), Alamar Blue Assay",[2]; 50 μM Aβ + 20 μM Glutamate,24 ± 0.8 % of control
same,"Neuron Survival (% of control), Alamar Blue Assay","[2]; 50 μM, alone",47 ± 3.5 % of control
same,rest [Ca^2+]i,[3]; 3 h,~ 280 nM
same,rest [Ca^2+]i,[3]; 6 h,~ 440 nM
same,neuronal survival in cultures exposed to Aβ25-35,"[4]; 50 μM, 24 hr",less than 50 % of control values
same,neuronal survival upon exposure to Aβ25-35,[4]; 24-h incubation,concentration-dependent reduction in neuronal survival
same,"neurotoxicity, preliminary characterization",[4],progressively killed neurons
same,aggregation in culture medium,[5],aggregated rapidly
same,[Ca^2+]i reached after glutamate in Aβ-pretreated cultures,[6]; Aβ pretreatment 3 h,"> 1,500 nM"
same,[Ca^2+]i reached after glutamate in Aβ-pretreated cultures,[6]; Aβ pretreatment 3 hr,over 1 μM
"Cc1c(C)c2c(c(C)c1O)CCC(C)(CCCC(C)CCCC(C)CCCC(C)C)O2 (stereo not drawn) [Vitamin E, α-tocopherol, reference compound]",effect on neurotoxicity of iron,[7],completely blocked
same,effect on neurotoxicity of hydrogen peroxide,"[8]; 50 μg/ml, 1 h pretreatment, 20 h",largely prevented
"OO [Hydrogen peroxide, hydrogen peroxide, reference compound]",neuronal survival,[8]; 20-h exposure,concentration-dependent reduction in neuronal survival
CNc1ccc2oc(C[C@H]3O[C@@]4(CC[C@H]3C)O[C@H]([C@H](C)C(=O)c3ccc[nH]3)[C@H](C)C[C@H]4C)nc2c1C(=O)O [A23187],neurons killed,[9]; 1 μM,essentially all neurons being killed
same,neuronal survival,[9]; 100-1000 nM,concentration-dependent reduction in neuronal survival
"Aβ1-40: Aβ1-40 (Bachem, lot ZK600), amyloid β-peptide [reference compound]","neurotoxicity, preliminary characterization",[4],progressively killed neurons
same,aggregation in culture medium,[5],aggregated rapidly
